The structures appear in SMILES notation.

The nature of one series: Measurement of logP values by HPLC on reversed phase columns (EEC directive 79/831 Annex V.A8). Conditions: HPLC on reversed phase columns; usually LC-MS at pH 2.7 with 0.1% formic acid in water and acetonitrile, linear gradient 10% to 95% acetonitrile. It is filed as physicochemical.
Take `CCC(C)N(C)Cc1cc(-c2ccnc(Nc3cccc(Cl)c3)n2)ccn1` (centres unmarked) [Compound A61]: the log p was 1.88.

Consider `CC1CCCN1Cc1cc(-c2ccnc(Nc3cccc(Cl)c3)n2)ccn1` (centres unmarked) [Compound A46], for which the log p was determined as 1.76.

For `CN(C)CCN(C)Cc1cc(-c2ccnc(Nc3cccc(Cl)c3)n2)ccn1` [Compound A58], the log p is 1.44.

For the molecule `CC(C)CN(C)Cc1cc(-c2ccnc(Nc3cccc(Cl)c3)n2)ccn1` [Compound A60], the log p is on record as 1.93.

Turning to `C#CCN(C)Cc1cc(-c2ccnc(Nc3cccc(Cl)c3)n2)ccn1` [Example A39], the log p was 1.75.

`CN1CCC(N(C)Cc2cc(-c3ccnc(Nc4cccc(Cl)c4)n3)ccn2)CC1` [Compound A63] yielded a log p of 1.07.

For `C=CCN(C)Cc1cc(-c2ccnc(Nc3cccc(Cl)c3)n2)ccn1` [Compound A59], the log p turned out to be 1.75.

With `CCCCN(C)Cc1cc(-c2ccnc(Nc3cccc(Cl)c3)n2)ccn1` [Compound A38], the log p is 1.97.

On to `CC1(C)CCCN(Cc2cc(-c3ccnc(Nc4cccc(Cl)c4)n3)ccn2)C1` [Compound A45], for which the log p is listed as 2.1.

In turn, `CN(C)C1CCN(Cc2cc(-c3ccnc(Nc4cccc(Cl)c4)n3)ccn2)CC1` [Example A56] yielded a log p of 1.1.

Take `CSCc1cc(-c2ccnc(Nc3cccc(Cl)c3)n2)ccn1` [Example A67]: the log p turned out to be 3.17.

Still in this series, the particulars now being: pH 2.7.
Molecule `CC(c1cc(-c2ccnc(N(C(=O)C3CC3)c3cccc(Cl)c3)n2)ccn1)N(C(=O)C1CC1)C(=O)C1CC1` (centres unmarked) [Compound A91] yielded a log p of 3.71.

In turn, `CCSCCN(C=O)Cc1cc(-c2ccnc(Nc3cccc(Cl)c3)n2)ccn1` [Compound A96] had a log p of 3.17.

As to `CC(C)(C)C(=O)OCc1cc(-c2ccnc(Nc3cccc(Cl)c3)n2)ccn1` [Example A24], the log p amounted to 4.31.

As for `CC(C)(C)C(=O)NCc1cc(-c2ccnc(Nc3cccc(Cl)c3)n2)ccn1` [Compound A13], the log p came to 2.88.

`CC(C)(C)C(=O)OCc1cc(-c2ccnc(N(C(=O)C(C)(C)C)c3cccc(Cl)c3)n2)ccn1` [Example A30]: the log p was found to be 4.7.

Regarding `CCC(=O)OCc1cc(-c2ccnc(Nc3cccc(Cl)c3)n2)ccn1` [Example A22], the log p was 3.44.

In turn, `CC(C)=CC(=O)NCc1cc(-c2ccnc(Nc3cccc(Cl)c3)n2)ccn1` [Compound A10] showed a log p of 2.75.

As to `COCC(C)C(=O)OC(C)c1cc(-c2ccnc(Nc3cccc(Cl)c3)n2)ccn1` (centres unmarked) [Compound A99], the log p was found to be 3.83.

In turn, `CN(Cc1cc(-c2ccnc(Nc3cccc(Cl)c3)n2)ccn1)C1CCCC1` [Compound A51] had a log p of 1.95.

The molecule `CC(=O)OCc1cc(-c2ccnc(N(C(C)=O)c3cccc(Cl)c3)n2)ccn1` [Compound A26] gave a log p of 2.35.

In turn, `CC(C)N(C)Cc1cc(-c2ccnc(Nc3cccc(Cl)c3)n2)ccn1` [Example A42] gave a log p of 1.79.

The molecule `C=CCSCc1cc(-c2ccnc(Nc3cccc(Cl)c3)n2)ccn1` [Example A75] showed a log p of 3.8.

`CC(NC(=O)C1CC1)c1cc(-c2ccnc(N(C(=O)C3CC3)c3cccc(Cl)c3)n2)ccn1` (centres unmarked) [Compound A92]: the log p was 2.49.

For `CC(C)C(=O)OCc1cc(-c2ccnc(Nc3cccc(Cl)c3)n2)ccn1` [Compound A31], the log p is on record as 3.89.

In turn, `CN1CCN(Cc2cc(-c3ccnc(Nc4cccc(Cl)c4)n3)ccn2)CC1` [Example A54] had a log p of 1.45.

As to `CC1CC(C)CN(Cc2cc(-c3ccnc(Nc4cccc(Cl)c4)n3)ccn2)C1` (centres unmarked) [Example A48], the log p turned out to be 2.1.

Regarding `C#CCCCC(=O)OCc1cc(-c2ccnc(Nc3cccc(Cl)c3)n2)ccn1` [Compound A33], the log p came out at 3.73.

As to `CC(C)CSCc1cc(-c2ccnc(Nc3cccc(Cl)c3)n2)ccn1` [Compound A84], the log p turned out to be 4.54.

With `CCCC(=O)OCc1cc(-c2ccnc(Nc3cccc(Cl)c3)n2)ccn1` [Example A20], the log p is recorded as 3.83.

`CC(C)CCSCc1cc(-c2ccnc(Nc3cccc(Cl)c3)n2)ccn1` [Example A86] had a log p of 4.97.

For `CC(C)CC(=O)NCc1cc(-c2ccnc(Nc3cccc(Cl)c3)n2)ccn1` [Compound A9], the log p is listed as 2.84.

`CC(C)CC(=O)OCc1cc(-c2ccnc(Nc3cccc(Cl)c3)n2)ccn1` [Compound A21] yielded a log p of 4.26.

`CC(C)=CC(=O)OCc1cc(-c2ccnc(Nc3cccc(Cl)c3)n2)ccn1` [Compound A89] returned a log p of 4.01.

For `CC(C)(C)CCSCc1cc(-c2ccnc(Nc3cccc(Cl)c3)n2)ccn1` [Example A78], the log p came out at 5.34.

Regarding `CC(C)C(=O)OCc1cc(-c2ccnc(N(C(=O)C(C)C)c3cccc(Cl)c3)n2)ccn1` [Example A32], the log p came out at 3.83.

Turning to `CC(C)CC(=O)OCc1cc(-c2ccnc(N(C(=O)CC(C)C)c3cccc(Cl)c3)n2)ccn1` [Example A27], the log p is given as 4.56.

In turn, `CCC(=O)OCc1cc(-c2ccnc(N(C(=O)CC)c3cccc(Cl)c3)n2)ccn1` [Example A28] showed a log p of 3.11.

Turning to `FC(F)(F)CSCc1cc(-c2ccnc(Nc3cccc(Cl)c3)n2)ccn1` [Example A79], the log p is 4.01.

`CCCSCc1cc(-c2ccnc(Nc3cccc(Cl)c3)n2)ccn1` [Compound A70] had a log p of 3.48.

Turning to `CCCC(=O)NC(C)c1cc(-c2ccnc(Nc3cccc(Cl)c3)n2)ccn1` (centres unmarked) [Compound A90], the log p worked out at 2.8.

Consider `Clc1cccc(Nc2nccc(-c3ccnc(CN4CC=CC4)c3)n2)c1` [Compound A49], for which the log p was found to be 1.67.

`Clc1cccc(Nc2nccc(-c3ccnc(CI)c3)n2)c1` [Example A68] came in with a log p of 3.73.

The molecule `COCC(=S)NCc1cc(-c2ccnc(Nc3cccc(Cl)c3)n2)ccn1` [Compound A16] gave a log p of 3.29.

The molecule `CCOC(=O)CCSCc1cc(-c2ccnc(Nc3cccc(Cl)c3)n2)ccn1` [Example A85] yielded a log p of 3.67.

For the molecule `Clc1cccc(Nc2nccc(-c3ccnc(CN4CCSCC4)c3)n2)c1` [Example A55], the log p was 1.78.

For the molecule `CCCC(=O)NCc1cc(-c2ccnc(Nc3cccc(Cl)c3)n2)ccn1` [Compound A5], the log p is 2.51.

For the molecule `O=C(OCc1cc(-c2ccnc(Nc3cccc(Cl)c3)n2)ccn1)C1CCCC1` [Compound A36], the log p came to 4.41.

Take `COCC(=O)NC(C)c1cc(-c2ccnc(Nc3cccc(Cl)c3)n2)ccn1` (centres unmarked) [Compound A80]: the log p was determined as 2.68.

On to `CCN(CC)Cc1cc(-c2ccnc(Nc3cccc(Cl)c3)n2)ccn1` [Compound A53], for which the log p was 1.78.

In turn, `CN(C)CCSCc1cc(-c2ccnc(Nc3cccc(Cl)c3)n2)ccn1` [Example A82] returned a log p of 1.75.

On to `CN(Cc1cc(-c2ccnc(Nc3cccc(Cl)c3)n2)ccn1)C(C)(C)C` [Example A43], for which the log p is given as 1.84.

`Clc1cccc(Nc2nccc(-c3ccnc(CSCc4ccccc4)c3)n2)c1` [Compound A83] showed a log p of 4.39.

Regarding `C=C(C)C(=O)NCc1cc(-c2ccnc(Nc3cccc(Cl)c3)n2)ccn1` [Example A8], the log p is given as 2.6.

With `CC(C)OC(=O)NCc1cc(-c2ncnc(Nc3cccc(Cl)c3)n2)ccn1` [Compound C3], the log p stood at 2.94.

For the molecule `C=C(C)CC(=O)OCc1cc(-c2ccnc(Nc3cccc(Cl)c3)n2)ccn1` [Compound A88], the log p amounted to 3.92.

The molecule `COCC1CCCN1Cc1cc(-c2ccnc(Nc3cccc(Cl)c3)n2)ccn1` (centres unmarked) [Example A62] registered a log p of 1.82.

Staying with this series, now noted: reversed phase HPLC column; HPLC on reversed phase columns; usual method: LC-MS at pH 2.7, 0.1% formic acid in water / acetonitrile, linear gradient 10% to 95% acetonitrile; read-out: logP.
For `CCC(C)CNC(C)c1cc(-c2ccnc(Nc3cccc(Cl)c3)n2)ccn1` (centres unmarked) [Compound A97, N-(3-chlorophenyl)-4-(2-{1-[(2-methylbutyl)amino]ethyl}pyridin-4-yl)pyrimidin-2-amine], the chromatographic logP is 2.13.

Still in this series, the particulars now being: reversed phase HPLC column; HPLC on reversed phase columns; usually LC-MS at pH 2.7 with 0.1% formic acid in water and acetonitrile, linear gradient 10% to 95% acetonitrile; read-out: log p.
`C=CCC(=O)OCc1cc(-c2ccnc(Nc3cccc(Cl)c3)n2)ccn1` [Compound A37, (4-{2-[(3-chlorophenyl)amino]pyrimidin-4-yl}pyridin-2-yl)methyl but-3-enoate]: the chromatographic logP is 3.64.

For `COCc1cc(-c2ccnc(N(C)c3cccc(Cl)c3)n2)ccn1` [Compound A25, N-(3-chlorophenyl)-4-[2-(methoxymethyl)pyridin-4-yl]-N-methylpyrimidin-2-amine], the chromatographic logP is 3.02.

Turning to `CCSCc1cc(-c2ccnc(Nc3cccc(Cl)c3)n2)ccn1` [Compound A69, N-(3-chlorophenyl)-4-{2-[(ethylsulfanyl)methyl]pyridin-4-yl}pyrimidin-2-amine], the chromatographic logP came to 3.64.

In the case of `NCc1cc(-c2ccnc(Nc3cccc(Cl)c3)n2)ccn1` [Compound A1, 4-[2-(aminomethyl)pyridin-4-yl]-N-(3-chlorophenyl)pyrimidin-2-amine], the chromatographic logP was 1.52.

Consider `Clc1cccc(Nc2nccc(-c3ccnc(CN4CCCCC4)c3)n2)c1` [Compound A17, N-(3-chlorophenyl)-4-[2-(piperidin-1-ylmethyl)pyridin-4-yl]pyrimidin-2-amine], for which the chromatographic logP is 1.81.

The series is the same for the next values; noted with them: reversed phase HPLC column; LC-MS at pH 2.7, 0.1% formic acid in water / acetonitrile, gradient 10% to 95% acetonitrile; read-out: log p.
As for `CCOC(=O)NCc1cc(-c2ncnc(Nc3cccc(Cl)c3)n2)ccn1` [Compound C4, ethyl[(4-{4-[(3-chlorophenyl)amino]-1,3,5-triazin-2-yl}pyridin-2-yl)methyl]carbamate], the chromatographic logP turned out to be 2.64.

Staying with this series, now noted: reversed phase HPLC column; LC-MS at pH 7.8, 0.001 molar ammonium hydrogen carbonate in water, gradient 10% to 95% acetonitrile; read-out: log p [c].
For `NCc1cc(-c2ncnc(Nc3cccc(Cl)c3)n2)ccn1` [Compound C6, 4-[2-(aminomethyl)pyridin-4-yl]-N-(3-chlorophenyl)-1,3,5-triazin-2-amine], the chromatographic logP is 1.74.

The record behind these values is patent US20110294810A1, “SUBSTITUTED (PYRIDYL)-AZINYLAMINE DERIVATIVES AS PLANT PROTECTION AGENTS” (priority 2008, published 2011).
